These results are taken from patent publication US5424073A (Georgetown University, priority 1993, dated 1995).

Structures are written as SMILES. In brackets after ≈: the same amount, converted by molar mass.

A short description of series [1]: Stability studies of liposomal and free taxol. The series is classed as physicochemical. As to conditions: free taxol 0.6 mg/ml in saline.
Series [2] deals with Male CD2 F1 mice. Nature of the series: Toxicity evaluation of free and liposomal taxol in normal mice. The class given is in vivo, mouse. The settings on record: 25 mg/kg i.v., repeated day 5 and 9. Here is the method: Male CD2 F1 mice weighing 22-25 gm were used in this study. […] Taxol liposomes were prepared using cardiolipin, phosphatidyl choline, and cholesterol. […] The same doses were repeated on mice at day 5 and 9.

Series [3] deals with HL-60 promyelocytic leukemia cells. Nature of the series: Growth inhibition (cytotoxicity) in HL-60 leukemia cells. The series is classed as cell-based. The settings on record: Homo sapiens; HL-60, 72 hours, 37° C., trypan blue; FIG. 3. On the procedure:
HL-60 promyelocytic leukemia cells were grown in tissue culture in RPM1-1640 medium supplemented with 10% fetal bovine serum. All cultures were maintained in plastic tissue culture flasks and kept in an incubator at 37° C. in humidified air containing 5% CO2.
For these experiments, 1×10^5 cells in exponential growth phase were plated into 25 cm^2 flasks. […] Cells were counted in a hemocytometer and viability was determined by trypan blue exclusion. The cell survival was compared to the control cells and IC50 (inhibitory concentration for 50% of the cells) values for each drug was determined.

For series [4], the system named is HL-60 cells. The series is classed as cell-based, human. The settings on record: 10 μg/ml, FIG. 4. On the procedure: Briefly, exponentially growing cells were incubated in 100 mm petri dishes with drug containing medium at 37° C. […] The cell pellets were suspended in 0.5 ml of 2% SDS solution and then sonicated for 5 minutes in a cup-horn sonicator. The cell homogenate was extracted with 2 ml of methanol.

In series [5] the test system is HL-60/VCR cells. Nature of the series: Cytotoxicity in multidrug resistant HL-60/VCR cells. The class given is cell-based. The settings on record: Homo sapiens, HL60/VCR, 72 hours, FIG. 5. On the procedure: The HL-60 VCR cells were grown in media at 37° C. with 5% CO2.
After 72 hours of incubation, cells in each flask were counted by hemocytometer and viability was determined by trypan blue exclusion. Percent survival of treated cells was determined relative to untreated control. Cytotoxic activity was expressed as IC50 which was defined as the concentration of drug resulting 50% survival of the cells compared to control.

In series [6] the test system is HL-60/VCR cells. Nature of the series: Intracellular taxol accumulation in HL-60/VCR cells. The series is classed as cell-based, human. The settings on record: 4 hours. On the procedure:
The cells were suspended in cold PBS and counted, and centrifuged again. The cell pellets were suspended in 0.5 ml of 2% SDS solution and then sonicated for 5 minutes in a cup-horn sonicator (Heat Systems, Farmingdate, N.Y.). Resulting cell homogenate was extracted with 4 ml of methanol, vortexed for 1 minute and centrifuged for 20 minutes at 3000 rpm. The samples were read by using HPLC. The concentration of drug in […] was calculated using a standard calibration curve for drug spiked cells and were then treated similarly.

Series [7] has as its system B16 melanoma. As to conditions: i.p. implanted; cited from earlier work.
Series [8] relates to L1210 leukemia. The settings on record: in vivo; cited from earlier work.
Series [9] deals with P388 leukemia. The settings on record: in vivo; cited from earlier work.
Series [10] relates to human MX-1 mammary tumor xenograft. The settings on record: in vivo; cited from earlier work.
Series [11] has as its system advanced ovarian tumors. The settings on record: women with advanced ovarian tumors; cited from earlier work.
The test system of series [12] is lymphoma, ovarian and breast cancers. The settings on record: cited from earlier work.
Series [13] relates to metastatic breast cancer. As to conditions: in vivo; cited from earlier work.
Series [14] concerns tubulin. As to conditions: cited from earlier work.
Series [15] has as its system cell replication. As to conditions: in vitro; cited from earlier work.
For series [16] the following is noted: cited from earlier work.
For series [17] the following is noted: cited from earlier work. This is another data set of the same source.

As for `CC(=O)O[C@H]1C(=O)[C@@]2(C)[C@H]([C@H](OC(=O)c3ccccc3)[C@]3(O)C[C@H](OC(=O)[C@H](O)[C@@H](NC(=O)c4ccccc4)c4ccccc4)C(C)=C1C3(C)C)[C@]1(OC(C)=O)CO[C@@H]1C[C@@H]2O` (relative stereo) [Taxol, (2aR(2aα,4β,4aβ,6β,9α(αR*,βS*) ,11α, 12α,12aα,12bα))-β-(β-(benzoylamino)-α-hydroxybenzenepropanoic acid 6,12b-bis(acetyloxy)-12-(benzoyloxy)-2a,3,4,4a,5,6,9,10,11,12,12a,12b-dodecahydro-4,11-dihydroxy-4a, 8,13,13-tetramethyl-5-oxo-7,11-methano-14-cyclodeca(3,4)benz(1,2-6)oxet-9-yl ester], in [1], the “degradation time in saline” value is no more than 3 h. In addition, in [2], the “sclerosis of the vein” value is listed as “sclerosis of the vein”. Further, the “mortality / toxicity by day 12” value in series [2] (ten mice per group, FIG. 2) is “three mice in the free taxol group died because of toxicity”. The half-maximal inhibitory concentration (IC50) was found to be 2.5 ng/mL (≈ 0.00293 µM) in series [3] and 2.43 µg/mL (≈ 2.85 µM) in series [5]. In addition, the “cellular concentration of taxol at 2 and 4 hours” value in [4] (2 and 4 hours, HL-60, relative to 1 hour) is recorded as “same taxol concentration”. Also, in series [4] (1 hour, HL-60), the “cellular concentration of taxol at 1 hour” value came out at 5.18 μg/10^7 cells. In addition, in [6], the “decrease in cellular uptake versus liposomal taxol” value is reported as “threefold decrease in cellular uptake”. Also, the “antineoplastic activity against B16 melanoma” value in series [7] is given as “significant antineoplastic activity”. Moreover, the “antineoplastic activity against L1210 leukemia” value in series [8] was “significant antineoplastic activity”. For the same molecule, the “antineoplastic activity against P388 leukemia” value in [9] is recorded as “significant antineoplastic activity”. For the same molecule, the “antineoplastic activity against MX-1 xenograft” value in series [10] is on record as “significant antineoplastic activity”. For the same molecule, the “tumor shrinkage, share of women” value in series [11] is listed as 30 to 40%. Further, the “activity in clinical trials” value in series [12] is given as “sufficient activity”. The “treatment of metastatic breast cancer” value in series [13] is “considerable promise”. Also, in series [14], the “effect on tubulin polymerization” value was “markedly enhances all aspects of tubulin polymerization”. In addition, the “inhibition of cell replication” value in series [15] is listed as “potent inhibitor of cell replication in vitro”. The “toxicities despite pretreatment and prolonged infusion” value in series [16] (antihistamine and corticosteroids, infusion six to twenty four hours) is on record as “serious toxicities which are often fatal”. The cardiac toxicity entry in [16] (human, in vivo) is “treatment limiting”. Moreover, the “degradation time once diluted in saline” value in series [17] (diluted in saline solution) is no more than 24 h. The precipitation from dilution result in series [17] (diluted in saline solution) is on record as “the drug precipitates from dilution”. Further, the solubility in water result in series [17] (water) is reported as “limited solubility in water”.
